These results are taken from ChEMBL document CHEMBL4118146, “Design, synthesis and evaluation of substituted piperidine based KCNQ openers as novel antiepileptic agents” (Bioorg Med Chem Lett, 2018).

The structures appear in SMILES notation.

Data set [1] addresses T1, Potassium voltage-gated channel subfamily KQT member 2 (Homo sapiens, UniProt O43526). In words: Activation of KCNQ2 (unknown origin) expressed in CHO cells assessed as half-maximum activation voltage left shift at 10 uM by electrophysiological patch-clamp test. The format is cell-based.
Data set [2] deals with T1, Potassium voltage-gated channel subfamily KQT member 2. Kind of data set: Activation of KCNQ2 (unknown origin) expressed in CHO cells at 10 uM incubated for 20 mins in dark measured every 2 secs for 10 secs by fluorescence-based thallium influx assay relative to control. The format is cell-based.
The target is the same in data set [3]. Kind of data set: Activation of KCNQ2 (unknown origin) expressed in CHO cells at 10 uM after 10 mins by atomic absorption spectrophotometry-based Rb+ flow assay. The class given is cell-based.
Data set [4] shares this target. Kind of data set: Activation of KCNQ2 (unknown origin) expressed in CHO cells assessed as conductivity (I/I0) at 10 uM by electrophysiological patch-clamp test. The class given is cell-based.
Data set [5] shares this target. Kind of data set: Activation of KCNQ2 (unknown origin) expressed in CHO cells at 10 uM incubated for 20 mins in dark measured every 2 secs for 10 secs by fluorescence-based thallium influx assay relative to retigabine. The format is cell-based.
The nature of data set [6]: Clearance in Sprague-Dawley rat at 1 mg/kg, iv measured over 24 hrs by LC/MS/MS method. The class given is ADME, organism-based. The note with it: in vivo.
Data set [7] can be described thus: Cmax in Sprague-Dawley rat at 1 mg/kg, iv measured over 24 hrs by LC/MS/MS method. The format is ADME, organism-based. On the set-up: dose 1 mg/kg, route intravenous. The note with it: in vivo.
Data set [8] in a line: Tmax in Sprague-Dawley rat at 1 mg/kg, iv measured over 24 hrs by LC/MS/MS method. The format is ADME, organism-based. The note with it: in vivo.
Data set [9] can be described thus: Apparent volume of distribution in Sprague-Dawley rat at 1 mg/kg, iv measured over 24 hrs by LC/MS/MS method. The class given is ADME, organism-based. The note with it: in vivo, read-out: Vd(app).
Data set [10] in a line: MRTlast in Sprague-Dawley rat at 1 mg/kg, iv measured over 24 hrs by LC/MS/MS method. The format is ADME, organism-based. The note with it: in vivo.
A short description of data set [11]: Half life in Sprague-Dawley rat at 1 mg/kg, iv measured over 24 hrs by LC/MS/MS method. The format is ADME, organism-based. The note with it: in vivo.
A short description of data set [12]: AUClast in Sprague-Dawley rat at 1 mg/kg, iv measured over 24 hrs by LC/MS/MS method. The class given is ADME, organism-based. On the set-up: dose 1 mg/kg, time 0 - last, route intravenous. The note with it: in vivo.

T1 sequence (O43526 whole entry): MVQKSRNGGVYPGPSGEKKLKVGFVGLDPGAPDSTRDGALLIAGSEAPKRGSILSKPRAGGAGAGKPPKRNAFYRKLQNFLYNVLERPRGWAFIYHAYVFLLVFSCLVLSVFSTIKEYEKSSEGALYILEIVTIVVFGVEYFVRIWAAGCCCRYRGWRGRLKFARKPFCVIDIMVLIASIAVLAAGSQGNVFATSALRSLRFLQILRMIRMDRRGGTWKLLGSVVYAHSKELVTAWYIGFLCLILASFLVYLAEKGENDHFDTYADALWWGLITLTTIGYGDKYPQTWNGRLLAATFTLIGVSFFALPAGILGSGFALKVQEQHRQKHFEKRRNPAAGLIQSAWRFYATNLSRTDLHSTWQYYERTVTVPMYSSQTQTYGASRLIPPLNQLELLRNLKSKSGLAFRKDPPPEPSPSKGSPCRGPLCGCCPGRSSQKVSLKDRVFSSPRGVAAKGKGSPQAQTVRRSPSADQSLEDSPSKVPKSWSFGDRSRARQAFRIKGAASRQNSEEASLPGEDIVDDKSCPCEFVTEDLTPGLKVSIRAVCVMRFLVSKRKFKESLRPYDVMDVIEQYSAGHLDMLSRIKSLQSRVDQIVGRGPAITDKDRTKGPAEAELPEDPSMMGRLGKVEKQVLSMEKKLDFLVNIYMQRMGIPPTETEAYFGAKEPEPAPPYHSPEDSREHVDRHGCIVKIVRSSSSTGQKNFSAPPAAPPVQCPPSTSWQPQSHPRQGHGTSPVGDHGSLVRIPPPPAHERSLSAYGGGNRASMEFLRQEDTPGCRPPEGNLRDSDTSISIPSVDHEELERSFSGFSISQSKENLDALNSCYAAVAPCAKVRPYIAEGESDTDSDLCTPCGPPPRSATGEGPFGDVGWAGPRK

On to `CCOC(=O)Nc1ccc(NCc2ccc(F)cc2)cc1N` [EZOGABINE], for which the values for the Activity in data set [1] and in data set [2] were 40 mV and 40.2%, respectively. In data set [3], this compound returned an EC50 of 0.35 µM. Also, the Efficacy in [3] is 210%. Further, in [4], the Ratio is 2.12.

For the compound `Cc1cc(N2CCN(c3ccccn3)CC2)cc(C)c1NC(=O)CC(C)(C)C`, in data set [2], the Activity was found to be 0.28%.

For the compound `Cc1cc(N2CCN(c3ccc(C(F)(F)F)cc3)CC2)cc(C)c1NC(=O)CC(C)(C)C`, the Activity in data set [2] was 88.3%.

On to `Cc1cc(N2CCC(=O)CC2)cc(C)c1NC(=O)CC(C)(C)C`, for which the Activity in [2] worked out at 110%. In [3], this compound had an EC50 of 0.13 µM and an Efficacy of 148%.

Take `Cc1cc(N2CCC(c3cccc(C(F)(F)F)c3)CC2)cc(C)c1NC(=O)CC(C)(C)C`: in [5], the fold change (FC) lay in the range of 3.7 to 42. The Activity in data set [2] was determined as 149%.

On to `Cc1cc(CN2CCCc3ccccc32)cc(C)c1NC(=O)CC(C)(C)C`, for which, in data set [5], the fold change (FC) amounted to 3.5. Moreover, the Activity in data set [1] turned out to be 13.3 mV; in [2] it was 139%. The compound further returned an EC50 in data set [3] of 0.33 µM. This compound also displayed an Efficacy in data set [3] of 160%. Moreover, the Ratio in data set [4] is 2.76.

As to `Cc1cc(C2CCCCN2)cc(C)c1NC(=O)CC(C)(C)C` (stereo not given), the Activity in data set [2] worked out at 0.83%.

For `Cc1cc(N2CCC(c3ccc(Cl)cc3)CC2)cc(C)c1NC(=O)CC(C)(C)C`, the Activity in [2] is 88.3%.

In the case of `Cc1cc(N2CCC(c3ccncc3)CC2)cc(C)c1NC(=O)CC(C)(C)C`, the Activity in data set [2] stood at 29.7%.

With `Cc1cc(N2CCC(c3ccccc3)CC2)cc(C)c1NC(=O)CC(C)(C)C`, the Activity in data set [2] came out at 0.63%.

Take `Cc1cc(N2CCCCC2)cc(C)c1NC(=O)CC(C)(C)C`: the Activity in data set [2] worked out at 69.8%.

`Cc1cc(N2CCN(c3cccc(C(F)(F)F)c3)CC2)cc(C)c1NC(=O)CC(C)(C)C`: in data set [2], the Activity was 52.1%.

In the case of `Cc1cc(CN2CCc3ccccc3C2)cc(C)c1NC(=O)CC(C)(C)C`, in [2], the Activity turned out to be 5.11%.

As to `Cc1cc(N2CCC(c3ccccc3C(F)(F)F)CC2)cc(C)c1NC(=O)CC(C)(C)C`, the Activity in [2] is -47.2%.

`Cc1cc(N2CCC(c3cccnc3)CC2)cc(C)c1NC(=O)CC(C)(C)C`: the Activity in data set [2] turned out to be 42.6%.

The compound `Cc1cc(N2CCC(c3cccc(F)c3)CC2)cc(C)c1NC(=O)CC(C)(C)C` had a clearance in [6] of 2 mL/min/kg. In data set [7], this compound came in with a Cmax of 9110 ng/mL. This compound displayed a fold change (FC) in data set [5] of 3.7 to 42. The Tmax in data set [8] is 1.8 min. Further, the Vd in data set [9] stood at 0.24 L/kg. Further, the MRT last at 24 h in data set [10] was determined as 2.61 h. In addition, in data set [2], the Activity turned out to be 152%. Besides, the half-life in data set [11] was 1.38 h. In addition, the AUC(0-t) at 24 h in [12] is 8360 ng·h/mL. In addition, in data set [3], a half-maximal effect (EC50) was put at 0.22 µM and the Efficacy turned out to be 180%.

As to `Cc1cc(N2CCC(N3CCOCC3)CC2)cc(C)c1NC(=O)CC(C)(C)C`, the Activity in data set [2] came to 1.13%.

Consider `Cc1cc(N2CCC(c3ccccc3F)CC2)cc(C)c1NC(=O)CC(C)(C)C`, for which the Activity in data set [2] was 44%.

Take `Cc1cc(N2CCC(c3ccc(C(F)(F)F)cc3)CC2)cc(C)c1NC(=O)CC(C)(C)C`: the Activity in data set [2] amounted to 41.2%.

As to `Cc1cc(N2CCC(c3cccc(Cl)c3)CC2)cc(C)c1NC(=O)CC(C)(C)C`, the fold change (FC) in data set [5] lay within 3.7 to 42. Also, the Activity in [2] worked out at 168%.

Take `Cc1cc(N2CCC(N3CCCCC3)CC2)cc(C)c1NC(=O)CC(C)(C)C`: the Activity in data set [2] was determined as 0.02%.

As for `Cc1cc(CN2CCCCC2)cc(C)c1NC(=O)CC(C)(C)C`, in [2], the Activity stood at 10.3%.

On to `Cc1cc(N2CCC(C)(C)CC2)cc(C)c1NC(=O)CC(C)(C)C`, for which, in data set [1], the Activity amounted to 25 mV. Moreover, the Activity in data set [2] was 100%. In data set [3], this compound came in with an EC50 of 1.58 µM and an Efficacy of 210%. The Ratio in [4] worked out at 1.53.
